{"source": "patent US10702706B2", "about": "“Apparatus, system, and method for generating photo-biologic minimum biofilm inhibitory concentration of infrared light” (NOMIR MEDICAL TECHNOLOGIES, INC., priority 2013, dated 2020)", "key": {"S. aureus": {"test_system": "S. aureus", "conditions": "cited from earlier work"}, "MRSA [1]": {"test_system": "MRSA", "experiment": "In vitro biofilm formation by biofilm producing MRSA strains challenged with Mupirocin, with or without NIMELS infrared light", "assay_type": "cell-based, methicillin resistant Staphylococcus aureus", "source_text": "The applicant tested the effect in vitro against MRSA with the topical drug Mupirocin.\nAccordingly, the PMBIC for MRSA challenged with Mupirocin was established using a straightforward testing protocol."}, "MRSA [2]": {"test_system": "MRSA", "conditions": "cited from earlier work"}, "MRSA [3]": {"test_system": "MRSA", "conditions": "of 38 patients, topical mupirocin; cited from earlier work"}}, "note": "Like-named read-outs stand apart in the source and are kept apart here."}
{"smiles": "C/C(=C\\C(=O)OCCCCCCCCC(=O)O)C[C@@H]1OC[C@H](C[C@@H]2O[C@H]2[C@@H](C)[C@H](C)O)[C@@H](O)[C@H]1O", "note": "[Mupirocin]", "values": [{"measurement": "effect on planktonic bacteria", "setting": "S. aureus; applied 15 minutes after inoculation (representing planktonic bacteria)", "result": "reduced planktonic bacteria"}, {"measurement": "effect on biofilm bacteria", "setting": "S. aureus; applied 48 hours after inoculation (representing biofilm bacteria)", "result": "decreased efficacy on S. aureus biofilms"}, {"measurement": "prevention of biofilm formation", "setting": "MRSA [1]; drug treatment alone, in vitro, biofilm producing MRSA strain (FIG. 9 left panel)", "result": "not effective in preventing biofilm formation"}, {"measurement": "inhibition of biofilm production", "setting": "MRSA [1]; sub-lethal NIMELS infrared light doses (870/930 nm, Table I) applied prior to drug, two different samples of MRSA (FIG. 9 right panel, FIG. 10)", "result": "did in fact inhibit biofilm production"}, {"measurement": "MIC", "setting": "MRSA [2]; 17 failed samples that were biofilm producing strains", "result": "≤ 2", "unit": "µg/mL"}, {"measurement": "MIC", "setting": "MRSA [2]; MRSA samples of the 14 patients with successful eradication", "result": "≤ 1", "unit": "µg/mL"}, {"measurement": "patients successfully eradicated of their MRSA", "setting": "MRSA [3]", "result": 14}]}
